In ChEMBL document CHEMBL1151364, “19-Hydroxybaccatin III, 10-deacetylcephalomannine, and 10-deacetyltaxol: new antitumor taxanes from Taxus wallichiana” (1981):
Values after ≈ are worked out from the molar mass of the structure shown. Active and inactive are the calls of the source. No cut-off for these calls is given here.

How the values were obtained:
KB = assay: Cytotoxicity against human KB cells; assay type: functional; conditions: for EC50: Homo sapiens, KB, read-out: ED50 (the source's name)
P388 [1] = assay: In vivo antitumor activity against mouse P388 cells at 2.2 mg/kg relative to control; assay type: functional
P388 [2] = assay: In vivo antitumor activity against mouse P388 cells at 0.26 to 4.3 mg/kg; assay type: functional, organism-based
P388 [3] = assay: In vivo antitumor activity against mouse P388 cells at 16 mg/kg relative to control; assay type: functional

Row | Compound | EC50 (KB) | other results
1 | CC(=O)O[C@@]12CO[C@@H]1C[C@@H](O)[C@@]1(C)C(=O)[C@H](O)C3=C(C)[C@@H](OC(=O)[C@H](O)[C@@H](NC(=O)c4ccccc4)c4ccccc4)C[C@@](O)([C@@H](OC(=O)c4ccccc4)[C@H]21)C3(C)C | 0.034 µg/mL (≈ 0.0419 µM) | –
2 | C/C=C(\C)C(=O)N[C@@H](c1ccccc1)[C@@H](O)C(=O)O[C@H]1C[C@@]2(O)[C@@H](OC(=O)c3ccccc3)[C@@H]3[C@]4(OC(C)=O)CO[C@@H]4C[C@H](O)[C@@]3(C)C(=O)[C@H](OC(C)=O)C(=C1C)C2(C)C [CEPHALOMANNINE] | 0.0038 µg/mL (≈ 0.00457 µM) | T/C (P388 [1]): 162%
3 | CC(=O)O[C@H]1C(=O)[C@@]2(CO)[C@H]([C@H](OC(=O)c3ccccc3)[C@]3(O)C[C@H](O)C(C)=C1C3(C)C)[C@]1(OC(C)=O)CO[C@@H]1C[C@@H]2O | – | Activity (P388 [2]): inactive; Activity (KB): 2.2 µg/mL
4 | C/C=C(\C)C(=O)N[C@@H](c1ccccc1)[C@@H](O)C(=O)O[C@H]1C[C@@]2(O)[C@@H](OC(=O)c3ccccc3)[C@@H]3[C@]4(OC(C)=O)CO[C@@H]4C[C@H](O)[C@@]3(C)C(=O)[C@H](O)C(=C1C)C2(C)C | 0.031 µg/mL (≈ 0.0392 µM) | T/C (P388 [3]): 130%
5 | CC(=O)O[C@H]1C(=O)[C@@]2(C)[C@H]([C@H](OC(=O)c3ccccc3)[C@]3(O)C[C@H](OC(=O)[C@H](O)[C@@H](NC(=O)c4ccccc4)c4ccccc4)C(C)=C1C3(C)C)[C@]1(OC(C)=O)CO[C@@H]1C[C@@H]2O [PACLITAXEL] | 0.0012 µg/mL (≈ 0.00141 µM) | T/C (P388 [1]): 152%
6 | C/C=C(\C)C(=O)N[C@@H](c1ccccc1)[C@@H](O)C(=O)O[C@H]1C[C@@]2(O)[C@@H](OC(=O)c3ccccc3)[C@@H]3[C@]4(OC(C)=O)CO[C@@H]4C[C@@H](O)[C@@]3(C)C(=O)[C@H](O)C(=C1C)C2(C)C | 0.046 µg/mL (≈ 0.0582 µM) | –
7 | CC(=O)O[C@@]12CO[C@@H]1C[C@H](O)[C@@]1(C)C(=O)[C@H](O)C3=C(C)[C@@H](OC(=O)[C@H](O)[C@@H](NC(=O)c4ccccc4)c4ccccc4)C[C@@](O)([C@@H](OC(=O)c4ccccc4)[C@H]21)C3(C)C | 0.027 µg/mL (≈ 0.0333 µM) | T/C (P388 [3]): 135%
